Read-outs that look alike come from different tables or passages of the source.
Legend:
Assay in all cases: MIC (Minimum Inhibitory Concentration)
Type in all cases: cell-based
Candida albicans = system: Candida albicans
Text: (§1) In addition they may be used for combatting plant diseases, in particular as fungicides. A list of MIC (Minimum Inhibitory Concentration) values for a number of microorganisms is listed herebelow. The figures in the column headings refer to the compounds prepared according to the experimental examples in comparison with the spectrum of 1-[2-(2,4-dichlorophenyl)-2-{(2,4-dichlorophenyl)-methoxy} -ethyl7-1H-imidazole (better known under the name of miconazole, c.f. Merck Index 9th Ed. page 6047) or natamycin (pimaricin, c.f. Merck Index 9th Ed. page 7233).

Pasteurella multocida = conditions: read-out: MIC values
Text: as §1

[1] = system: Streptococcus haemolyticus; conditions: read-out: MIC values
Text: as §1

Trichophyton equinum = system: Trichophyton equinum
Text: as §1

[2] = system: Trichophyton mentagrophytus
Text: as §1

Trichophyton quickeaneum = conditions: read-out: MIC values
Text: as §1

Trichophyton rubrum = system: Trichophyton rubrum
Text: as §1

[3] = system: Trichophyton schoenleinii; conditions: read-out: MIC values
Text: as §1

Trichophyton tonsurans = conditions: read-out: MIC values
Text: as §1

Trichophyton verrucosum = system: Trichophyton verrucosum
Text: as §1

Trichophyton violoceum = conditions: read-out: MIC values
Text: as §1

[4] = read-out: MIC values, Candida albicans A 7
[5] = read-out: MIC values, Candida albicans A 3140
[6] = read-out: MIC values, Candida albicans A 3141
[7] = read-out: MIC values, Candida albicans A 3142
[8] = read-out: MIC values, Candida albicans A 3143
[9] = read-out: MIC values, Candida albicans A 3144
[10] = read-out: MIC values, Candida albicans A 3145
[11] = read-out: MIC values, Candida albicans A 3165
[12] = read-out: MIC values, Candida albicans A 3166
[13] = read-out: MIC values, Candida albicans A 3167
[14] = read-out: MIC values, Candida albicans A 3168
[15] = read-out: MIC values, Candida albicans A 3169
[16] = read-out: MIC values, Candida albicans A 3171
[17] = read-out: MIC values, Candida albicans A 3184
[18] = read-out: MIC values, Candida albicans A 3190
[19] = read-out: MIC values, Candida albicans A 3191
[20] = read-out: MIC values, Candida albicans A 3192
[21] = read-out: MIC values, Candida albicans A 3194
[22] = read-out: MIC values, Candida albicans A 3196
[23] = read-out: MIC values, Trichophyton equinum 182-76
[24] = read-out: MIC values, Trichophyton mentagrophytus 367-68
[25] = read-out: MIC values, Trichophyton mentagrophytus 421-67
[26] = read-out: MIC values, Trichophyton mentagrophytus A 3252
[27] = read-out: MIC values, Trichophyton mentagrophytus R 177
[28] = read-out: MIC values, Trichophyton mentagrophytus R 178
[29] = read-out: MIC values, Trichophyton rubrum 218-65
[30] = read-out: MIC values, Trichophyton rubrum 494-62
[31] = read-out: MIC values, Trichophyton rubrum A 810
[32] = Candida albicans A 7, read-out: MIC values
[33] = Candida albicans A 3140, read-out: MIC values
[34] = Candida albicans A 3141, read-out: MIC values
[35] = Candida albicans A 3142, read-out: MIC values
[36] = Candida albicans A 3143, read-out: MIC values
[37] = Candida albicans A 3144, read-out: MIC values
[38] = Candida albicans A 3145, read-out: MIC values
[39] = Candida albicans A 3165, read-out: MIC values
[40] = Candida albicans A 3166, read-out: MIC values
[41] = Candida albicans A 3167, read-out: MIC values
[42] = Candida albicans A 3168, read-out: MIC values
[43] = Candida albicans A 3169, read-out: MIC values
[44] = Candida albicans A 3171, read-out: MIC values
[45] = Candida albicans A 3184, read-out: MIC values
[46] = Candida albicans A 3190, read-out: MIC values
[47] = Candida albicans A 3191, read-out: MIC values
[48] = Candida albicans A 3192, read-out: MIC values
[49] = Candida albicans A 3194, read-out: MIC values
[50] = Candida albicans A 3196, read-out: MIC values
[51] = Streptococcus haemolyticus A 1088
[52] = Trichophyton equinum 182-76, read-out: MIC values
[53] = Trichophyton equinum 856-71, read-out: MIC values
[54] = Trichophyton mentagrophytus 367-68, read-out: MIC values
[55] = Trichophyton mentagrophytus 421-67, read-out: MIC values
[56] = Trichophyton mentagrophytus A 3252, read-out: MIC values
[57] = Trichophyton mentagrophytus R 177, read-out: MIC values
[58] = Trichophyton mentagrophytus R 178, read-out: MIC values
[59] = Trichophyton mentagrophytus RRL 305, read-out: MIC values
[60] = Trichophyton quickeaneum A 2040
[61] = Trichophyton rubrum 218-65, read-out: MIC values
[62] = Trichophyton rubrum 494-62, read-out: MIC values
[63] = Trichophyton rubrum A 810, read-out: MIC values
[64] = Trichophyton schoenleinii 435-63

Measured: MIC

[C-]#[N+]C(=C1CCOCC1)S(=O)(=O)c1ccc(C)cc1 [Example 14a, a-(tetrahydropyran-4-ylidene)-a-(4-toluenesulphonyl)-methyl-isocyanide]
0.75 µg/mL: Trichophyton tonsurans; Trichophyton tonsurans
6 µg/mL: Candida albicans; [12] | Candida albicans; [13] | Candida albicans; [14] | Candida albicans; [15] | Candida albicans; [16] | Pasteurella multocida; Pasteurella multocida | Trichophyton equinum; read-out: MIC values, Trichophyton equinum 441-51 | [3]; Trichophyton schoenleinii
25 µg/mL: Candida albicans; [9] | [1]; Streptococcus | Trichophyton equinum; [23] | [2]; [24] | [2]; [25] | [2]; [26] | Trichophyton quickeaneum; Trichophyton | Trichophyton rubrum; [30]
3 µg/mL: Trichophyton rubrum; [29] | Trichophyton verrucosum; read-out: MIC values, Trichophyton verrucosum 134-66 | Trichophyton verrucosum; read-out: MIC values, Trichophyton verrucosum A 2922
100 µg/mL: [2]; [28]
12.5 µg/mL: Candida albicans; [4] | Candida albicans; [5] | Candida albicans; [6] | Candida albicans; [7] | Candida albicans; [8] | Candida albicans; [10] | Candida albicans; [11] | Candida albicans; [17] | Candida albicans; [18] | Candida albicans; [19] | Candida albicans; [20] | Candida albicans; [21] | Candida albicans; [22] | [2]; [27] | Trichophyton rubrum; [31] | Trichophyton violoceum; Trichophyton

[C-]#[N+]C(=CCCC)S(=O)(=O)c1ccc(C)cc1 [Example 24, 1-isocyano-1-(4-toluenesulphonyl)-1-pentene]
50 µg/mL: Candida albicans; [40] | Candida albicans; [41] | Candida albicans; [42] | Pasteurella multocida; Pasteurella multocida A 723 | Trichophyton equinum; [52] | Trichophyton equinum; [53] | [2]; [55] | [2]; [59] | Trichophyton rubrum; [62]
25 µg/mL: Candida albicans; [32] | Candida albicans; [33] | Candida albicans; [34] | Candida albicans; [39] | Candida albicans; [43] | Candida albicans; [44] | Candida albicans; [45] | Candida albicans; [46] | Candida albicans; [47] | Candida albicans; [48] | Candida albicans; [49] | Candida albicans; [50] | [2]; [56] | [2]; [57] | [2]; [58] | Trichophyton rubrum; [61] | Trichophyton rubrum; [63] | [3]; [64] | Trichophyton tonsurans; Trichophyton tonsurans 561-50 | Trichophyton violoceum; Trichophyton violoceum 442-62
12.5 µg/mL: Candida albicans; [36] | Candida albicans; [37] | Candida albicans; [38]
3 µg/mL: Candida albicans; [35]
100 µg/mL: [1]; [51] | [2]; [54] | Trichophyton quickeaneum; [60]

[C-]#[N+]C(=C1CCCCC1)S(=O)(=O)c1ccccc1 [Example 25, a-cyclohexylidene-a-benzenesulphonylmethyl-isocyanide]
12.5 µg/mL: Trichophyton equinum; read-out: MIC values, Trichophyton equinum 856-71
25 µg/mL: [1]; Streptococcus
1.5 µg/mL: Candida albicans; [4] | Candida albicans; [5] | Candida albicans; [6] | Candida albicans; [7] | Candida albicans; [8] | Candida albicans; [12] | Candida albicans; [15] | Candida albicans; [17] | Candida albicans; [20] | [2]; [24] | [2]; [25]
0.2 µg/mL: Trichophyton tonsurans; Trichophyton tonsurans
3 µg/mL: Candida albicans; [9] | Candida albicans; [10] | Candida albicans; [11] | Candida albicans; [13] | Candida albicans; [16] | Candida albicans; [18] | Candida albicans; [21] | Candida albicans; [22] | Pasteurella multocida; Pasteurella multocida | [2]; [26] | [2]; [27] | [2]; [28] | [2]; read-out: MIC values, Trichophyton mentagrophytus RRL 305 | Trichophyton quickeaneum; Trichophyton | Trichophyton violoceum; Trichophyton
0.4 µg/mL: Trichophyton rubrum; [29] | Trichophyton rubrum; [31]
0.8 µg/mL: [3]; Trichophyton schoenleinii
6 µg/mL: Candida albicans; [14] | Candida albicans; [19] | Trichophyton equinum; [23] | Trichophyton rubrum; [30]

[C-]#[N+]C(=C(CCCCC)CCCCC)S(=O)(=O)c1ccc(C)cc1 [Example 26, 1-isocyana-2-pentyl-1-(4-toluenesulphonyl)-1-heptene]
25 µg/mL: Candida albicans; [34] | Candida albicans; [35] | Candida albicans; [38] | Candida albicans; [40] | Candida albicans; [43]
> 100 µg/mL: Candida albicans; [41] | Candida albicans; [47] | [1]; [51] | Trichophyton equinum; [52] | [2]; [54] | [2]; [56] | [2]; [57] | [2]; [58] | [2]; [59] | Trichophyton quickeaneum; [60]
50 µg/mL: Candida albicans; [32] | Candida albicans; [36] | Candida albicans; [39] | Candida albicans; [44] | Candida albicans; [45] | Candida albicans; [46] | Candida albicans; [48] | Candida albicans; [49] | Candida albicans; [50] | Trichophyton equinum; [53] | Trichophyton rubrum; [63]
6 µg/mL: Candida albicans; [33]
100 µg/mL: Candida albicans; [37] | Candida albicans; [42] | Pasteurella multocida; Pasteurella multocida A 723 | [2]; [55] | Trichophyton rubrum; [61] | Trichophyton rubrum; [62] | [3]; [64] | Trichophyton tonsurans; Trichophyton tonsurans 561-50 | Trichophyton violoceum; Trichophyton violoceum 442-62

From patent EP0007672A1, “Isocyanoalkenes, process and useful intermediates for their preparation, pharmaceutical and fungicidal preparations containing those isocyanoalkenes and the use of the fungicidal preparations in agriculture” (GIST-BROCADES N.V., priority 1978, dated 1980)
